{"source": "patent US20250312462A1", "about": "“PAK1 DEGRADERS AND METHODS OF USE THEREOF” (INSTITUTE FOR CANCER RESEARCH D/B/A THE RESEARCH INSTITUTE …, priority 2022, published 2025)", "key": {"PRP4": {"target": "T1, PRP4 (Homo sapiens, UniProt Q13523)", "T1 construct": "purchased DiscoverX", "assay": "KINOMEscan", "type": "binding", "details": "read-out: Percent Control"}, "ERK4": {"target": "ERK4 (Homo sapiens, UniProt P31152)", "assay": "KINOMEscan", "details": "read-out: Percent Control", "procedure": "(§1) The kinase engagement assay (KINOMEscan®) was performed by DiscoverX assessing binding abilities toward a set of kinases."}, "PRKG1": {"target": "PRKG1 (Homo sapiens, UniProt Q13976)", "assay": "KINOMEscan", "details": "read-out: Percent Control", "procedure": "as §1"}, "PCTK2": {"target": "PCTK2 (Homo sapiens, UniProt Q00537)", "assay": "KINOMEscan", "details": "read-out: Percent Control", "procedure": "as §1"}, "ERBB3": {"target": "ERBB3 (Homo sapiens, UniProt P21860)", "sequence (P21860 20-1342)": "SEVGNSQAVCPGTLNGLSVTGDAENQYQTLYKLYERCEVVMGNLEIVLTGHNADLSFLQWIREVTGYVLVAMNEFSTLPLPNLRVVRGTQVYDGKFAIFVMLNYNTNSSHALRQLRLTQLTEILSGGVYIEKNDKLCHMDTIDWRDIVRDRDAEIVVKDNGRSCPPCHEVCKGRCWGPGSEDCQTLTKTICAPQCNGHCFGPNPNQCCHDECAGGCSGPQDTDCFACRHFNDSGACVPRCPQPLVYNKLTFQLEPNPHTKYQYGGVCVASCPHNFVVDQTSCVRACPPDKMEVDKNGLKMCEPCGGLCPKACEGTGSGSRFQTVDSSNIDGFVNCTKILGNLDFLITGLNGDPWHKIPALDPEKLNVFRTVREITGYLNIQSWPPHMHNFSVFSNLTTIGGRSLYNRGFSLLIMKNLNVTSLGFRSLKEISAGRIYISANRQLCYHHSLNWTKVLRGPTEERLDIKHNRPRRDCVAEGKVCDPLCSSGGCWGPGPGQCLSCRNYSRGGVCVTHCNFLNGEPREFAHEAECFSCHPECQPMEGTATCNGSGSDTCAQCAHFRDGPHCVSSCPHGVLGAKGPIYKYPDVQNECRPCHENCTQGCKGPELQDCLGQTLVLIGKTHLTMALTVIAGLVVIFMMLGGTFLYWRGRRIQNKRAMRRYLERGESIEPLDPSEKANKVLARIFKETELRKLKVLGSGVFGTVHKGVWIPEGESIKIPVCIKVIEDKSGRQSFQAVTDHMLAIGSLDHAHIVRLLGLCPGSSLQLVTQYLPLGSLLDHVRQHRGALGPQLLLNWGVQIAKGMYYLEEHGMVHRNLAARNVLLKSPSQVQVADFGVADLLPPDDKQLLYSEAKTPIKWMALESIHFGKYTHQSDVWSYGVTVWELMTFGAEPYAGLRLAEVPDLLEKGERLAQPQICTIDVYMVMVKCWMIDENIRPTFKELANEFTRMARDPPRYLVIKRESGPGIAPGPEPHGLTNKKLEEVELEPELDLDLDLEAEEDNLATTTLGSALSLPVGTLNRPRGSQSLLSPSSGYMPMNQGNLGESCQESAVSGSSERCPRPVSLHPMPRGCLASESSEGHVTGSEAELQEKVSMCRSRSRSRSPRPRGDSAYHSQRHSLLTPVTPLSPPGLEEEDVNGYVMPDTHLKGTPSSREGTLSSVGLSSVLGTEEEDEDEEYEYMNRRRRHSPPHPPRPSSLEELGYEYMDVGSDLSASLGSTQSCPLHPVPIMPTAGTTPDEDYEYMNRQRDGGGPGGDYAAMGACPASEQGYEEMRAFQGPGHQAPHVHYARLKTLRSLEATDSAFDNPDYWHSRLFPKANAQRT", "assay": "KINOMEscan", "details": "read-out: Percent Control", "procedure": "as §1"}, "CSNK1D": {"target": "CSNK1D (Homo sapiens, UniProt P48730)", "sequence (P48730 whole entry)": "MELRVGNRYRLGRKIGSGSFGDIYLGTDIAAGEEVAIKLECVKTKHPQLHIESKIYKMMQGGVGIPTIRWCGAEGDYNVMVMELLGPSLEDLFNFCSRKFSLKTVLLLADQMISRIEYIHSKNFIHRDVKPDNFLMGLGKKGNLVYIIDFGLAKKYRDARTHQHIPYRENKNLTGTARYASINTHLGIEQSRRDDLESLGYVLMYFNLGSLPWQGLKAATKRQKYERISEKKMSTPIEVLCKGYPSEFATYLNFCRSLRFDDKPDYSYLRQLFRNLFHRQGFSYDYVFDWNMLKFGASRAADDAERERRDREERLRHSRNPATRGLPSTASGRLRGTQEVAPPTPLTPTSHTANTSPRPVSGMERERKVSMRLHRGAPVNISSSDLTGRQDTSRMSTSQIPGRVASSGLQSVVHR", "assay": "KINOMEscan", "details": "read-out: Percent Control", "procedure": "as §1"}, "MLCK": {"target": "MLCK (Homo sapiens, UniProt Q32MK0)", "assay": "KINOMEscan", "details": "read-out: Percent Control", "procedure": "as §1"}, "TRKB": {"target": "TRKB (Homo sapiens, UniProt Q16620)", "sequence (Q16620 32-822)": "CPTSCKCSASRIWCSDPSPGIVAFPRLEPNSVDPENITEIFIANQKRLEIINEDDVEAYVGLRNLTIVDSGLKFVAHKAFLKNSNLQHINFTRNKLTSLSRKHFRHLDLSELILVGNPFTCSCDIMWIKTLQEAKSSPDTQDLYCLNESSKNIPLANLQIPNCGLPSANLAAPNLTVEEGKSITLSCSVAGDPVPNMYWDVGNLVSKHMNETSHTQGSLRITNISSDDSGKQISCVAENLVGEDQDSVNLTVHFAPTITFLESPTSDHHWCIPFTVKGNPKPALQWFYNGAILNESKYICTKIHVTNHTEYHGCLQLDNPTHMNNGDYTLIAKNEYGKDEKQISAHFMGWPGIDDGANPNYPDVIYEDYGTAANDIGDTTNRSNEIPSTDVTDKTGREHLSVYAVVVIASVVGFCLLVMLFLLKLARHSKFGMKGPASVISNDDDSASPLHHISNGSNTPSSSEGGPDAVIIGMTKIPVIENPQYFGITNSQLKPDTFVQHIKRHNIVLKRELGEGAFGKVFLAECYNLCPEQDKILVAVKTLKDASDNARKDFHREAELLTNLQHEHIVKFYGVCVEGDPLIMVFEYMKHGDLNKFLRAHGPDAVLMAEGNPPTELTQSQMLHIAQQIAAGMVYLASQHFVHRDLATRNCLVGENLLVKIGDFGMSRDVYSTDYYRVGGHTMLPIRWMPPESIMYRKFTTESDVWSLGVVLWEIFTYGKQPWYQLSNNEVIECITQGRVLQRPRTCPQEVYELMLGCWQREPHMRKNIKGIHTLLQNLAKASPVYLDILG", "assay": "KINOMEscan", "details": "read-out: Percent Control", "procedure": "as §1"}, "STK39": {"target": "STK39 (Homo sapiens, UniProt Q9UEW8)", "assay": "KINOMEscan", "details": "read-out: Percent Control", "procedure": "as §1"}, "PRKD1": {"target": "PRKD1 (Homo sapiens, UniProt Q15139)", "sequence (Q15139 whole entry)": "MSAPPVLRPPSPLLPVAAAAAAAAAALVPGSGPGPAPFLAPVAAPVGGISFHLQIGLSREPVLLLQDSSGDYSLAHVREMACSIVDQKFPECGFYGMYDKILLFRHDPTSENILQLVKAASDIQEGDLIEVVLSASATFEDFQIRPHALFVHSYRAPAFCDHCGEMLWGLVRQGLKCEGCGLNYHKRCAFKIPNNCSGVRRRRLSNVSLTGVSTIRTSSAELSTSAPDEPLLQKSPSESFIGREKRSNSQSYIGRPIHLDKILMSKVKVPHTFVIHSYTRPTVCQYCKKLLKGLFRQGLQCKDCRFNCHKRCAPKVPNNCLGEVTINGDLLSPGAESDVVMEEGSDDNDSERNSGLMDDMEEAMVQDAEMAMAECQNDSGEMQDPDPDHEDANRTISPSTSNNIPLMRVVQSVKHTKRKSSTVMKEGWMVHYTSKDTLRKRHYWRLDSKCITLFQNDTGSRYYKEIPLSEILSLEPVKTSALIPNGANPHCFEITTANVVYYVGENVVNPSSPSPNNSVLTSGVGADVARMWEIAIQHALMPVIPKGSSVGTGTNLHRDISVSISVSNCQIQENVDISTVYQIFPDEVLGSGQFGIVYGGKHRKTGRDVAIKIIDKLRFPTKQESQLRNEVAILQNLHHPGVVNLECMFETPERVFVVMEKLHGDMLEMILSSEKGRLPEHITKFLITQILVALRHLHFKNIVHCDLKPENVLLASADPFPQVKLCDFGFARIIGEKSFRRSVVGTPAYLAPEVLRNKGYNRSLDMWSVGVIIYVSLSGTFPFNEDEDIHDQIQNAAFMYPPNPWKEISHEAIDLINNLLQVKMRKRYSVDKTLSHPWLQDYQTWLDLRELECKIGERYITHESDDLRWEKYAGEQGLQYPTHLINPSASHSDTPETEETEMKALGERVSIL", "assay": "KINOMEscan", "details": "read-out: Percent Control", "procedure": "as §1"}, "EPHA2": {"target": "EPHA2 (Homo sapiens, UniProt P29317)", "assay": "KINOMEscan", "details": "read-out: Percent Control", "procedure": "as §1"}, "EGFR(L858R, T790M)": {"target": "EGFR(L858R, T790M) (Homo sapiens, UniProt P00533, L858R/T790M)", "assay": "KINOMEscan", "details": "read-out: Percent Control", "procedure": "as §1"}, "FER": {"target": "FER (Homo sapiens, UniProt P16591)", "assay": "KINOMEscan", "details": "read-out: Percent Control", "procedure": "as §1"}, "PFTK1": {"target": "PFTK1 (Homo sapiens, UniProt O94921)", "assay": "KINOMEscan", "details": "read-out: Percent Control", "procedure": "as §1"}, "INSR": {"target": "INSR (Homo sapiens, UniProt P06213)", "assay": "KINOMEscan", "details": "read-out: Percent Control", "procedure": "as §1"}, "ABL2": {"target": "ABL2 (Homo sapiens, UniProt P42684)", "assay": "KINOMEscan", "details": "read-out: Percent Control", "procedure": "as §1"}, "FLT3(ITD, D835V)": {"test_system": "FLT3(ITD, D835V)", "assay": "KINOMEscan", "details": "10 μM", "procedure": "as §1"}, "[1]": {"target": "RSK4(Kin.Dom.1-N-terminal) (Homo sapiens, UniProt Q9UK32)", "assay": "KINOMEscan", "details": "read-out: Percent Control", "procedure": "as §1"}, "MST1R": {"target": "MST1R (Homo sapiens, UniProt Q04912)", "assay": "KINOMEscan", "details": "read-out: Percent Control", "procedure": "as §1"}, "SIK2": {"target": "SIK2 (Homo sapiens, UniProt Q9H0K1)", "assay": "KINOMEscan", "details": "read-out: Percent Control", "procedure": "as §1"}, "CDKL3": {"target": "CDKL3 (Homo sapiens, UniProt Q8IVW4)", "assay": "KINOMEscan", "details": "read-out: Percent Control", "procedure": "as §1"}, "LOK": {"target": "LOK (Homo sapiens, UniProt O94804)", "sequence (O94804 whole entry)": "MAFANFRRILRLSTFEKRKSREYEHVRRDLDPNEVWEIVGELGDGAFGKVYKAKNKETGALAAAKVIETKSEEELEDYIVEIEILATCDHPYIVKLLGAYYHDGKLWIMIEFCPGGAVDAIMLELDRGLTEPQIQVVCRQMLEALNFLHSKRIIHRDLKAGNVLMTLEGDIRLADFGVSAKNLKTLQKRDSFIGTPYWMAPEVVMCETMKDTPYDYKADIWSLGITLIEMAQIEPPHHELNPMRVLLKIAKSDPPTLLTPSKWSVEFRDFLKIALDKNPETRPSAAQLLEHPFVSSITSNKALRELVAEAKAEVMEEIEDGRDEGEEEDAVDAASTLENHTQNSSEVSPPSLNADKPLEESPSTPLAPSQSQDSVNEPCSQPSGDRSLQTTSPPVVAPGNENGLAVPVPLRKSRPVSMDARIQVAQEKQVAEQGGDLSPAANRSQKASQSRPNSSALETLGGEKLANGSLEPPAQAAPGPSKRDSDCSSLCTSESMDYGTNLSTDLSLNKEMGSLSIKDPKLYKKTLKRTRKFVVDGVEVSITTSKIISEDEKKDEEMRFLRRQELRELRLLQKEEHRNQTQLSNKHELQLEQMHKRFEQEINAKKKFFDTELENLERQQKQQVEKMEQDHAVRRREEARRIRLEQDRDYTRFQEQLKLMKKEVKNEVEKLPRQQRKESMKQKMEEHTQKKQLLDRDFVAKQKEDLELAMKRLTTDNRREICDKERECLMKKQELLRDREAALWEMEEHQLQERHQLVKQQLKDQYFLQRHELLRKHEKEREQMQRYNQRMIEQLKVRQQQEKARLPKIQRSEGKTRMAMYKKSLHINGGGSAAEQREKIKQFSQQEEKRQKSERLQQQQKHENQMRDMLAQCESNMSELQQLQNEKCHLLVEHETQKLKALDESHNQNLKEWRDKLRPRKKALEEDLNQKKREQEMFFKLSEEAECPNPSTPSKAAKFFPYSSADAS", "assay": "KINOMEscan", "details": "read-out: Percent Control", "procedure": "as §1"}, "CDKL1": {"target": "CDKL1 (Homo sapiens, UniProt Q00532)", "sequence (Q00532 whole entry)": "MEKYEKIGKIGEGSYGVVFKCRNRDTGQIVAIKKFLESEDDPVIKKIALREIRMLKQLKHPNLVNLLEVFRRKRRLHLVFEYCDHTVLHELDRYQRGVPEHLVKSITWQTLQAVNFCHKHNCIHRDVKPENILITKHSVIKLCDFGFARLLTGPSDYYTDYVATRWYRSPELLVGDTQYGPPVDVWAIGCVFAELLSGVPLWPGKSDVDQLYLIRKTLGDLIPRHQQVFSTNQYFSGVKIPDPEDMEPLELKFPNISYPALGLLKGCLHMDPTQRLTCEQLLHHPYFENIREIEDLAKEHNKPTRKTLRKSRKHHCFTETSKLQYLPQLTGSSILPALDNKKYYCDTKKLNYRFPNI", "assay": "KINOMEscan", "details": "read-out: Percent Control", "procedure": "as §1"}, "[2]": {"target": "JAK2(JH1domain-catalytic) (Homo sapiens, UniProt O60674)", "assay": "KINOMEscan", "details": "read-out: Percent Control", "procedure": "as §1"}, "ALK(L1196M)": {"target": "ALK(L1196M) (Homo sapiens, UniProt Q9UM73, L1196M)", "assay": "KINOMEscan", "details": "read-out: Percent Control", "procedure": "as §1"}, "BRAF(V600E)": {"target": "BRAF(V600E) (Homo sapiens, UniProt P15056, V600E)", "assay": "KINOMEscan", "details": "read-out: Percent Control", "procedure": "as §1"}, "[3]": {"target": "JAK1(JH2domain-pseudokinase) (Homo sapiens, UniProt P23458)", "sequence (P23458 583-855 limits assumed)": "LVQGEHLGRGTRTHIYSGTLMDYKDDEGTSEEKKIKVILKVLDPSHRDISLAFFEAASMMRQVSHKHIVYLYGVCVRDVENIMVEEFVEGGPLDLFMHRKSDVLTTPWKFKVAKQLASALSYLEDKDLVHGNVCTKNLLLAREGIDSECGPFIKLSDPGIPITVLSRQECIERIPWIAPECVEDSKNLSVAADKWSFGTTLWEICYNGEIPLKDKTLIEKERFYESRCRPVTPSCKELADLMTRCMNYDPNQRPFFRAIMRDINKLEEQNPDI", "assay": "KINOMEscan", "details": "read-out: Percent Control", "procedure": "as §1"}, "PAK2": {"target": "PAK2 (Homo sapiens, UniProt Q13177)", "assay": "PAK2 degradation in MCF7 and OVCAR3 cells, immunoblot", "type": "cell-based", "parameters": "due to their high expression of both PAK1 and PAK2; endogenous in cells; host or cells: MCF7, OVCAR3", "method": "[…]. Cells were incubated overnight then treated with various concentrations of Pak degraders alone or together with bortezomib or lenalidomide for 24 hours. Protein lysates were harvested at the times specified.\nCells were washed once in PBS and lysed in RIPA buffer (50 mM Tris-HCl, 150 mM NaCl, 0.25% (w/v) sodium deoxycholate, 1% (w/v) NP-40, pH 7.5) containing protease inhibitor cocktail (Roche) and phosphatase inhibitor cocktail (Roche) for 30 minutes on ice. Cell lysates were obtained by centrifugation at 13,500 rpm for 15 minutes at 4° C. BCA protein assay (Thermo Scientific) was used to determine protein concentration then equal amounts of total proteins were separated by SDS-PAGE (Bio-Rad) and transferred to PVDF membrane (Thermo Scientific) at 100V for 2 hours. Membranes were blocked in 5% (w/v) non-fat dry milk in tris-buffered saline with 0.1% Tween-20 (TBS-T) for 1 hour and incubated with primary antibody at 4° C. for overnight. […]\nAfter verifying that BJG-05-039 retained specificity for PAK1, its degradation activity in cells was characterized. First, the PAK1 degrader was evaluated in the breast cancer cell line MCF7 and the ovarian cancer cell line OVCAR3 due to their high expression of both PAK1 and PAK2 and their known dependence on PAK1 (Prudnikova, et al. (2016) Oncogene 35:2178-2185; Shrestha, et al. (2012) Oncogene 31:3397-3408). […]"}}}
{"molecule": "O=C1CCC(N2C(=O)c3cccc(NCCCCCCCCNC(=O)N4CC[C@H](NC5=Nc6cc(F)ccc6N(CC(F)F)c6ccc(Cl)cc65)C4)c3C2=O)C(=O)N1", "note": "(stereo partly drawn) [BJG-05-039, (3S)-3-((2-Chloro-5-(2,2-difluoroethyl)-8-fluoro-5H-dibenzo[b,e][1,4]diazepin-11-yl)amino)-N-(8-((2-(2,6-dioxopiperidin-3-yl)-1,3-dioxoisoindolin-4-yl)amino)octyl)pyrrolidine-1-carboxamide]", "values": [{"measurement": "remaining binding at 10 µM", "setting": "PRP4", "result": 97, "unit": "%"}, {"measurement": "remaining binding at 10 µM", "setting": "ERK4", "result": 52, "unit": "%"}, {"measurement": "remaining binding at 10 µM", "setting": "PRKG1", "result": 57, "unit": "%"}, {"measurement": "remaining binding at 10 µM", "setting": "PCTK2", "result": 58, "unit": "%"}, {"measurement": "remaining binding at 10 µM", "setting": "ERBB3", "result": 59, "unit": "%"}, {"measurement": "remaining binding at 10 µM", "setting": "CSNK1D", "result": 60, "unit": "%"}, {"measurement": "remaining binding at 10 µM", "setting": "MLCK", "result": 66, "unit": "%"}, {"measurement": "remaining binding at 10 µM", "setting": "TRKB", "result": 67, "unit": "%"}, {"measurement": "remaining binding at 10 µM", "setting": "STK39", "result": 70, "unit": "%"}, {"measurement": "remaining binding at 10 µM", "setting": "PRKD1", "result": 81, "unit": "%"}, {"measurement": "remaining binding at 10 µM", "setting": "EPHA2", "result": 82, "unit": "%"}, {"measurement": "remaining binding at 10 µM", "setting": "EGFR(L858R, T790M)", "result": 86, "unit": "%"}, {"measurement": "remaining binding at 10 µM", "setting": "FER", "result": 88, "unit": "%"}, {"measurement": "remaining binding at 10 µM", "setting": "PFTK1", "result": 88, "unit": "%"}, {"measurement": "remaining binding at 10 µM", "setting": "INSR", "result": 93, "unit": "%"}, {"measurement": "remaining binding at 10 µM", "setting": "ABL2", "result": 94, "unit": "%"}, {"measurement": "Percent Control", "setting": "FLT3(ITD, D835V)", "result": 95}, {"measurement": "remaining binding at 10 µM", "setting": "[1]", "result": 95, "unit": "%"}, {"measurement": "remaining binding at 10 µM", "setting": "MST1R", "result": 97, "unit": "%"}, {"measurement": "remaining binding at 10 µM", "setting": "SIK2", "result": 97, "unit": "%"}, {"measurement": "remaining binding at 10 µM", "setting": "CDKL3", "result": 98, "unit": "%"}, {"measurement": "remaining binding at 10 µM", "setting": "LOK", "result": 98, "unit": "%"}, {"measurement": "remaining binding at 10 µM", "setting": "CDKL1", "result": 99, "unit": "%"}, {"measurement": "remaining binding at 10 µM", "setting": "[2]", "result": 99, "unit": "%"}, {"measurement": "remaining binding at 10 µM", "setting": "ALK(L1196M)", "result": 100, "unit": "%"}, {"measurement": "remaining binding at 10 µM", "setting": "BRAF(V600E)", "result": 100, "unit": "%"}, {"measurement": "remaining binding at 10 µM", "setting": "[3]", "result": 100, "unit": "%"}, {"measurement": "PAK2 degradation", "setting": "PAK2", "result": "not PAK2"}]}
